# Measurements reported in patent US20040034216A1, “3-Nitrogen-6,7-dioxygen steroids and uses related thereto” (priority 2003, published 2004).
# Counter-ions that a name gives are not always drawn. Like-named read-outs stand apart in the source and are kept apart here.
# Assays:
# Jurkat clone E6.1 cells = experiment: Antigen-induced calcium flux in anti-CD3 stimulated Jurkat cells (Fura 2AM); type: cell-based; settings: anti-CD3 mAb stimulated Jurkat clone E6.1 cells; for inhibition at 20 µM: Homo sapiens
# Source text: Elevation of cytoplasmic calcium concentration is a common and crucial event which follows the activation of many types of cell surface receptors. Increases in intracellular calcium that occur following agonist activation of inositol lipid hydrolysis are the results of calcium release from the endoplasmic reticulum and the influx of calcium through the plasma membrane. Increases in cytosolic calcium concentration are involved in many important cellular responses in the inflammatory process including adhesion, motility, gene expression, proliferation, and degranulation. Changes in intracellular calcium concentrations can affect both short and long term cellular responses. An assay method to evaluate a test compound's impact on calcium flux is provided as follows.
# The resulting supernatants are discarded and each pellet is washed in 10 mL HBSS. Cell suspensions are accumulated and centrifuged for 5 minutes at 900 RPM to form a cell pellet. The resulting supernatant is discarded and the pellet is resuspended in HBSS at 1×10^7cells/mL. The cell suspension is transferred to a 20 mm petri dish and incubated at 37° C., 5% CO2 for 20 minutes.
# One volume of Fura 2AM is mixed to one volume of detergent Pluronic F127. Cells are labeled with 4 μL of probe solution to each mL of cell suspension. The petri dish is wrapped in aluminum foil to protect from light and placed on a plate shaker for 30 minutes at room temperature.
# The following steps are done in the laminar flow hood with the fluorescent lights turned off. The petri dish is removed from the shaker and the labeled cell suspension is transferred to a 15 mL conical tube and washed twice with HBSS as above. The cell pellet is resuspended in 12 mL HBSS and left wrapped in foil for 30 minutes at room temperature. The labeled cell suspension is aliquoted (100 μL/well) into a Dynex 96 well white opaque tissue culture plate. […] Selected compounds were tested for dose related activity. Test samples and activator (anti-CD3 mAb at final concentration of 4 μg/mL, PharMingen) are added manually (50 μL), such that the minimum time to acquire the first data point after stimulation is approximately 30 seconds. The calcium influx response to anti-CD3 mAb is measured as an “end point” assay. The entire plate is read in 100 seconds using a kinetic of 1 second per well.
# The plate is read before the addition of anti-CD3 to monitor non-specific effect of samples/drugs. Fluorescence emission is measured at 510 nm with excitation alternating between 340 and 380 every second using an excitation/emission filter pair. Data from these dual wavelengths are represented as a ratio of 2 excitations wavelengths. This ratio is independent of intracellular dye and cell concentrations, enabling real comparison between experiments.
# [1] = tested on: sensitized Brown Norway rats; experiment: Ovalbumin-induced accumulation of inflammatory cells in lung lavage fluid (allergen-induced lung inflammation); type: in vivo, rat; settings: p.o., corn oil, lung lavage fluid
# Method: The ability of a compound to inhibit the allergen-induced accumulation of inflammatory cells such as eosinophils and neutrophils in the lavage fluid obtained from sensitized animals is indicative of that compound's anti-asthma activity. […] The test is conducted as follows.
# Male Brown Norway rats are sensitized to ovalbumin by single intraperitoneal injection of 1 mg ovalbumin adsorbed to 100 mg […] (alum) in 1 ml sterile saline (saline control rats receive only sterile saline) on day 1, and allowed to sensitize until day 21. […] Rats are challenged with 0.5% ovalbumin in saline generated using a Devillbis nebulizer for 60 min on day 21.
# Forty-eight hrs after challenge, animals are sacrificed with an overdose of intraperitoneally-delivered sodium pentobarbitol and the lungs are lavaged with cold 2×7 ml phosphate buffered saline. The recovered lavage fluid is placed on ice. The bronchoalveolar lavage fluid is centrifuged and the supernatant removed. The pellet is resuspended in phosphate buffered saline at 4° C. Cytospins are prepared and stained for differentiation and enumeration of cell types.
# Test compound was administered in 300 μl corn oil (Tables 7 and 8) or water (Table 9), which were used as vehicles. Control animals received 300 μl corn oil or water alone, i.e., no drug. […] A negative value in Table 7, 8, or 9 indicates an exacerbation of the effect over the control animal.
# [2] = tested on: Rat Mast Cell Line (RBL-2H3); experiment: Antigen-induced release of hexosaminidase from a rat mast cell line (RBL-2H3); type: cell-based; settings: tested at 0.3, 3, 10 and 30 μM, read-out: Hex IC50
# Method: The anti-allergic effects of a compound of the present invention was evaluated by measuring its effect on antigen-induced secretion of hexosaminidase from a passively sensitized rat mast cell line. The ability of a test compound to inhibit the release of mast cell granule contents, e.g., histamine and hexosaminidase, is indicative of the anti-allergy and/or anti-asthma activity of the compound. Hexosaminidase is released from the mast cell granule along with histamine and other mediators during antigen challenge. The test is performed as follows.
# RBL-2H3 cells are grown in culture and passively sensitized for 1 hour at 37° C. to dinitrophenol (DNP) using anti-human-DNP (IgE). Cells are incubated with test compound for 30 minutes at 37° C. and stimulated with 0.5 μg/ml DNP-HSA (antigen) for 30 minutes. Aliquots of the supernatant are removed and used to measure the amount of hexosaminidase released during challenge with the antigen. The amount of hexosaminidase present in the supernatant is determined colorimetrically by monitoring the enzymatic metabolism of p-nitrophenyl-N-acetyl-β-D-glucosaminide (p-NAG) over a period of 60 minutes at 405 nm. The effect of each test compound is determined as a percentage of the antigen-induced response (minus background release) obtained in the presence of DMSO alone. These values are used to determine the degrees of inhibition of antigen-induced hexosaminidase release from the cells.
# [3] = 5 mg/kg/day for 4 days, relative to control animals
# [4] = Rattus norvegicus, RBL-2H3, inhibition of antigen (DNP-HSA)-induced hexosaminidase release
# [5] = Jurkat, read-out: Calcium (% inhibition at 20 μM), 20 μM
compound,measurement,setting,value
CCC1(C)CCC2=C1CCC1C2C(O)C(O)C2CC(Nc3ccccc3)CCC21C.Cl (mixture of isomers) [Compound 144],Calcium (% inhibition at 20 μM),Jurkat clone E6.1 cells; 20 μM,13.0%
CCC1(C)CCC2=C1CCC1C2C(O)C(O)C2CC(Nc3cccc(C(F)(F)F)c3)CCC21C.Cl (mixture of isomers) [Compound 145],Calcium (% inhibition at 20 μM),Jurkat clone E6.1 cells; 20 μM,−0.2%
CC=C1CCC2C3C(CC[C@]12C)[C@@]1(C)CCC(N)CC1[C@@H](O)[C@@H]3O (some centres unmarked) [Compound 49],% inhibition of eosinophils,[1]; [3],52%
C=C1CCC2C3C(CC[C@]12C)[C@@]1(C)CCC(N)CC1[C@@H](O)[C@@H]3O (some centres unmarked) [Compound 53],% inhibition of eosinophils,[1]; [3],24%
C=C1CCC2C3C(CC[C@]12C)[C@@]1(C)CCC(N)CC1[C@@H](O)[C@@H]3O (some centres unmarked) [Compound 54],IC50,[2]; [4],16.1 µM
COC(=O)C=C1CCC2C3C(CC[C@]12C)[C@@]1(C)CCC(N)CC1[C@@H](O)[C@@H]3O (some centres unmarked) [Compound 69],inhibition at 20 µM,Jurkat clone E6.1 cells; [5],11.2%
same,IC50,[2]; [4],21.2 µM
"C[C@]12CC[C@@H](N)CC1[C@@H](O)[C@H](O)[C@@H]1[C@@H]2CC[C@]2(C)C(=O)CC[C@@H]12 (stereo partly drawn) [Compound 70, 3α-amino-6α,7β-dihydroxyandrostan-17-one acetic acid salt]",inhibition at 20 µM,"Jurkat clone E6.1 cells; read-out: Calcium (% inhibition at 20 μM), 20 μM",7%
C[C@]12CCC3C(C1CCC2O)[C@@H](O)[C@H](O)C1CC(N)CC[C@]31C (some centres unmarked) [Compound 72],inhibition at 20 µM,Jurkat clone E6.1 cells; [5],10.3%
C=C1CCC2C3C(CC[C@]12C)[C@@]1(C)CCC(N)CC1[C@@H](OC)[C@@H]3OC (some centres unmarked) [Compound 78],inhibition at 20 µM,Jurkat clone E6.1 cells; [5],5.3%
same,IC50,[2]; [4],20.1 µM
CC(F)=C1CCC2C3C(CC[C@]12C)[C@@]1(C)CCC(N)CC1[C@@H](O)[C@@H]3O (some centres unmarked) [Compound 95],% inhibition of eosinophils,[1]; [3],14%
CCC1CCC2C3C(CC[C@]12C)[C@@]1(C)CCC(N)CC1[C@@H](O)[C@@H]3O (some centres unmarked) [Compound 97],% inhibition of eosinophils,[1]; [3],40%
C=C1CCC2C3C(CC[C@]12C)[C@@]1(C)CC[C@@H](NCc2ccc(C(C)C)cc2)CC1[C@@H](O)[C@@H]3O (some centres unmarked) [Compound 100],inhibition at 20 µM,Jurkat clone E6.1 cells; [5],33.2%
same,IC50,[2]; [4],18.2 µM
C=C1CCC2C3C(O)C(O)C4CC(NCc5cccc(C(F)(F)F)c5)CCC4(C)C3CCC12C.CC(=O)O (centres unmarked) [Compound 102],Calcium (% inhibition at 20 μM),Jurkat clone E6.1 cells; 20 μM,9.5%
C=C1CCC2C3C(O)C(O)C4CC(NCc5cccc([N+](=O)[O-])c5)CCC4(C)C3CCC12C (centres unmarked) [Compound 106],Calcium (% inhibition at 20 μM),Jurkat clone E6.1 cells; 20 μM,8.1%
C=C1CCC2C3C(O)C(O)C4CC(NCc5cccnc5)CCC4(C)C3CCC12C.Cl.Cl (centres unmarked) [Compound 107],% inhibition of lymphocytes,[1]; 1 mg/kg/day for 4 days,−28%
same,% inhibition of neutrophils,[1]; 1 mg/kg/day for 4 days,23%
C/C=C1/CCC2C3C(CC[C@]12C)[C@@]1(C)CCC(N2CCCCC2)CC1[C@@H](O)[C@@H]3O (some centres unmarked) [Compound 110],inhibition at 20 µM,Jurkat clone E6.1 cells; [5],39.7%
same,IC50,[2]; [4],10.9 µM
C/C=C1/CCC2C3C(CC[C@]12C)[C@@]1(C)CCC(NC)CC1[C@@H](O)[C@@H]3O (some centres unmarked) [Compound 113],inhibition at 20 µM,Jurkat clone E6.1 cells; [5],45%
same,IC50,[2]; [4],9.8 µM
CC=C1CCC2C3C(O)C(O)C4CC(NCCCCC)CCC4(C)C3CCC12C.Cl (centres unmarked) [Compound 115],Calcium (% inhibition at 20 μM),Jurkat clone E6.1 cells; 20 μM,40.0%
CC(=O)O.CC=C1CCC2C3C(O)C(O)C4CC(NC5CCCC5)CCC4(C)C3CCC12C (centres unmarked) [Compound 116],Calcium (% inhibition at 20 μM),Jurkat clone E6.1 cells; 20 μM,60.9%
CC=C1CCC2C3C(O)C(O)C4CC(NCCNCCC)CCC4(C)C3CCC12C (centres unmarked) [Compound 119],IC50,[2]; inhibition of antigen (DNP-HSA)-induced hexosaminidase release,6.1 µM
CC=C1CCC2C3C(O)C(O)C4CC(NCCN(C)C)CCC4(C)C3CCC12C.Cl.Cl (centres unmarked) [Compound 120],Calcium (% inhibition at 20 μM),Jurkat clone E6.1 cells; 20 μM,44.0%
CC=C1CCC2C3C(O)C(O)C4CC(NCCNCCO)CCC4(C)C3CCC12C.Cl.Cl (centres unmarked) [Compound 124],% inhibition of eosinophils,[1]; 1 mg/kg/day for 4 days,−55%
same,% inhibition of lymphocytes,[1]; 1 mg/kg/day for 4 days,−26%
same,% inhibition of neutrophils,[1]; 1 mg/kg/day for 4 days,−76%
same,Calcium (% inhibition at 20 μM),Jurkat clone E6.1 cells; 20 μM,21.0%
CC=C1CCC2C3C(O)C(O)C4CC(Nc5cccc(C)c5)CCC4(C)C3CCC12C.Cl (centres unmarked) [Compound 125],Calcium (% inhibition at 20 μM),Jurkat clone E6.1 cells; 20 μM,5.7%
CC=C1CCC2C3C(O)C(O)C4CC(Nc5ccc(O)cc5)CCC4(C)C3CCC12C.Cl (centres unmarked) [Compound 126],Calcium (% inhibition at 20 μM),Jurkat clone E6.1 cells; 20 μM,45.0%
C=C1CCC2C3C(CC[C@]12C)[C@@]1(C)CC[C@@H](NC(C)=O)CC1[C@@H](O)[C@@H]3O (some centres unmarked) [Compound 131],inhibition at 20 µM,Jurkat clone E6.1 cells; [5],9.9%
same,IC50,[2]; [4],14.1 µM
C=C1CCC2C3C(CC[C@]12C)[C@@]1(C)CC[C@@H](NS(=O)(=O)C(C)C)CC1[C@@H](O)[C@@H]3O (some centres unmarked) [Compound 133],% inhibition of eosinophils,[1]; 1 mg/kg/day for 4 days,−43%
same,% inhibition of lymphocytes,[1]; 1 mg/kg/day for 4 days,28%
same,% inhibition of neutrophils,[1]; 1 mg/kg/day for 4 days,40%
C=C1CCC2C3C(CC[C@]12C)[C@@]1(C)CC[C@@H](NC(=O)Nc2ccccc2)CC1[C@@H](O)[C@@H]3O (some centres unmarked) [Compound 137],inhibition at 20 µM,Jurkat clone E6.1 cells; [5],13%
same,IC50,[2]; [4],14.8 µM
C=C1CCC2C3C(CC[C@]12C)[C@@]1(C)CC[C@@H](NC(=O)NCCC)CC1[C@@H](O)[C@@H]3O (some centres unmarked) [Compound 138],% inhibition of eosinophils,[1]; 1 mg/kg/day for 4 days,−52%
same,% inhibition of lymphocytes,[1]; 1 mg/kg/day for 4 days,33%
same,% inhibition of neutrophils,[1]; 1 mg/kg/day for 4 days,35%
same,Calcium (% inhibition at 20 μM),Jurkat clone E6.1 cells; 20 μM,9.0%
COc1ccc(CNC2CCC3(C)C(C2)C(O)C(O)C2C4=C(CCC23)C(C)(C)CC4)cc1OC.Cl (centres unmarked) [Compound 142],% inhibition of lymphocytes,[1]; 1 mg/kg/day for 4 days,−42%
same,% inhibition of neutrophils,[1]; 1 mg/kg/day for 4 days,−1%
CCC1(C)CCC2=C1CCC1C2C(O)C(O)C2CC(NCc3ccccc3)CCC21C.Cl (centres unmarked) [Compound 146],% inhibition of eosinophils,[1]; 1 mg/kg/day for 4 days,8%
same,% inhibition of lymphocytes,[1]; 1 mg/kg/day for 4 days,−27%
same,% inhibition of neutrophils,[1]; 1 mg/kg/day for 4 days,24%
CCC1(C)CCC2=C1CCC1C2C(O)C(O)C2CC(NCc3ccccc3)CCC21C.Cl (centres unmarked) [Compound 147],% inhibition of eosinophils,[1]; 1 mg/kg/day for 4 days,40%
same,% inhibition of lymphocytes,[1]; 1 mg/kg/day for 4 days,36%
same,% inhibition of neutrophils,[1]; 1 mg/kg/day for 4 days,58%
COC1C(OC)C2CC(N)CCC2(C)C2CCC3=C(CCC3(C)C)C12.Cl (centres unmarked) [Compound 148],Calcium (% inhibition at 20 μM),Jurkat clone E6.1 cells; 20 μM,6.6%
